Data published in paper PMC7600788, “Sequence Permutation Generates Peptides with Different Antimicrobial and Antibiofilm Activities” (Pharmaceuticals, 2020).
No end group written: not given here.

How the values were obtained:
[1] = test system: S. aureus USA300 LAC; format: cell-based, Staphylococcus aureus; details: USA300
Protocol: (§1) To gain additional insight, we also compared the effects of physiological saline and human serum on the antibacterial activities of WW291-WW298 using both E. coli and S. aureus (Table 3). In our assays, salts and serum were present during the entire course of the experiment. […] Thus, WW295 and WW298 stand out in terms of activity robustness (bold in Table 3).
(§2) The antibacterial activity of peptides was evaluated using a standard broth microdilution protocol with minor modifications as previously described. In brief, logarithmic phase bacterial cultures (i.e., optical density at 600 nm ≈ 0.5) were diluted to OD600~0.001 and partitioned into a 96-well polystyrene microplate at 90 μL per well. After treatment with 10 μL of peptide solutions two-fold diluted to various concentrations, microplates were incubated at 37 °C overnight and read on a ChroMate 4300 Microplate Reader at 630 nm (GMI, Ramsey, MN). […] Minimal bactericidal concentration (MBC) was determined by plating the clear wells at MIC or above. The peptide concentration that caused no bacterial growth on the petri dish is MBC.

[2] = test system: E. coli ML35p; assay: Simultaneous outer and inner membrane permeation (nitrocefin / ONPG); format: cell-based, Escherichia coli; details: 3.1 µM
Description: To confirm the mechanism of action, we also performed membrane permeation using a reporter strain of E. coli ML35p. This strain enabled simultaneous monitoring of membrane permeation of both the inner and outer membranes of Gram-negative bacterium E. coli. Both WW295 and WW298 were included in the experiment. […] This is indicated by the sharp development of absorbance at 490 nm for nitrocefin (panel A) and at 420 nm for ONPG (panel B).
The E. coli ML-35p strain was utilized to probe the permeation of both the outer membrane (OM) and inner membrane (IM). This strain was engineered to have two membrane reporters. Nitrocefin is used for detection of OM permeabilization. Nitrocefin is excluded from the periplasm. […] The chromogenic cleavage product was spectrophotometrically monitored at 490 nm. […] However, permeabilization of the IM helps ONPG to enter cytoplasm and get cleaved by cytoplasmic β-galactosidase into o-nitrophenol, which can be detected spectrophotometrically at 420 nm. […] Absorbances at both 490 and at 420 nm were monitored using FLUOstar Omega (BMG, Labtech, NC, USA) simultaneously. After shaking at 100 rpm, readings were taken every 2 min for a total of 40 min at 37 °C. Data were analyzed using the MARS data analysis software provided by the manufacturer and representative plots were made using the GraphPad Prism 7 software.

[3] = test system: E. coli ATCC 25922; format: cell-based, Escherichia coli; details: ATCC 25922
Protocol: as §1, §2

[4] = test system: S. aureus Mu50; format: cell-based, Staphylococcus aureus; details: Mu50
Protocol: The antimicrobial activity spectrum of the WW peptide series was performed on a panel of Gram-positive and -negative bacteria using the standard broth micro-dilution method with minor modifications as described. […] There was a small change in the case of Pseudomonas aeruginosa and Acinetobacter baumannii up to two-fold. Four-fold changes were found for Staphylococcus aureus, Staphylococcus epidermidis, Escherichia coli, and Bacillus subtilis. However, we observed over eight-fold MIC changes for Klebsiella pneumoniae and vancomycin-resistant enterococcus (VRE). […] We also observed more than eight-fold changes in minimal bacterial killing concentrations.
as §2

[5] = test system: monkey kidney Vero E6 cells; format: cell-based
Protocol: Peptides were assayed for potential in vitro toxicity against human keratinocytes (HaCaT) and THP-1 cells as previously described. THP-1 monocytes were differentiated into macrophages by adding 30 ng/mL of phorbol 12-myristate 13-acetate (PMA; Sigma-Aldrich) to RPMI 1640 supplemented with 10% fetal calf serum culture (FCS) medium for 16 h. Briefly, cells were seeded at a density of 3 × 10^4 per well in a tissue culture 96-well plate in DMEM/RPMI supplemented with 10% fetal bovine serum (FBS), and incubated at 37 °C in a 5% CO2 atmosphere for 24 h. African green monkey kidney Vero E6 cells were cultivated in EMEM in the same manner. Before antimicrobial treatment, wells were replaced with serum free media and treated with peptides at different concentrations for one hour. After incubation, the cells were washed and incubated with 100 μL of DMEM media containing 20 μL of 3-(4,5-dimethylthiazol-2-yl)-5-(3-carboxymethoxyphenyl)-2-(4-sulfophenyl)-2H-tetrazolium (MTS) reagent for two hours at 37 °C. […] Absorbance readings at 492 nm were taken using a ChroMate microplate reader (GMI, Ramsey, MN, USA).

[6] = test system: K. pneumonia ATCC 13883; details: cited from earlier work
Description: Table 2 Antibacterial activities of the WW peptides against various bacteria. | column: Minimal Inhibitory Concentration (MIC, μM) / KP ^a

[7] = test system: chicken red blood cells; assay: Hemolytic assay; format: cell-based
Protocol: (§3) Hemolytic assays of peptides were performed as previously described. Briefly, human red blood cells (hRBCs) obtained from UNMC Blood Bank, or chicken or porcine blood cells purchased from commercial sources as previously described, were washed three times with phosphate buffer saline (PBS) and diluted to a 2% solution (V/v). After peptide treatment, incubation at 37 °C for one hour, and centrifugation at 13,000 rpm, aliquots of the supernatant were carefully transferred to a fresh 96-well microplate. The amount of hemoglobin released was measured at 545 nm. The percent lysis was calculated by assuming 100% release when human blood cells were treated with 2% Triton X-100, and 0% release when incubated with PBS buffer. The peptide concentration that caused 50% lysis of hRBCs is defined as HC50.

[8] = test system: Pig RBC; assay: Hemolytic assay; format: cell-based
Protocol: as §3

[9] = test system: human red blood cells; assay: Hemolytic assay; format: cell-based; details: red cells of human
Protocol: as §3

RKIWWWWL [WW295]
MIC, +150 mM NaCl [1]: 3.1 µM
MIC, +10% Human Serum [1]: 12.5 µM
MIC, TSB [1]: 3.1 µM
outer and inner membrane permeation (nitrocefin 490 nm, ONPG 420 nm) [2]: entered both outer and inner membranes
MIC, +150 mM NaCl [3]: 6.2 µM
MIC, +10% Human Serum [3]: 12.5 µM
MIC, TSB [3]: 3.1 µM
Minimal Inhibitory Concentration (MIC), SA [4]: 12.5 µM
Vero Cells, concentration that caused 50% cell death (LC50) [5]: >100 µM
Minimal Inhibitory Concentration (MIC), KP [6]: 3.1 to 6.2 µM
Chicken RBC, concentration that caused 50% red blood cell lysis (HC50) [7]: 100 µM
Pig RBC, concentration that caused 50% red blood cell lysis (HC50) [8]: >100 µM
Human RBC, concentration that caused 50% red blood cell lysis (HC50) [9]: 57 µM
